Consider three compounds from patent US8557860B2, “Cyclopentane heptan(ENE)OIC acid, 2-heteroarylalkenyl derivatives as therapeutic agents” (Allergan, Inc., priority 2004, dated 2013).

One may read the EC50 as the concentration at which the effect is half-maximal.

Assay type in all cases: cell-based
The target of one assay is T1, hEP1 (Homo sapiens, UniProt P34995).
T1 construct: expressed in transfected cells; host or cells: HEK-293(EBNA)
T1 sequence (P34995 1-402): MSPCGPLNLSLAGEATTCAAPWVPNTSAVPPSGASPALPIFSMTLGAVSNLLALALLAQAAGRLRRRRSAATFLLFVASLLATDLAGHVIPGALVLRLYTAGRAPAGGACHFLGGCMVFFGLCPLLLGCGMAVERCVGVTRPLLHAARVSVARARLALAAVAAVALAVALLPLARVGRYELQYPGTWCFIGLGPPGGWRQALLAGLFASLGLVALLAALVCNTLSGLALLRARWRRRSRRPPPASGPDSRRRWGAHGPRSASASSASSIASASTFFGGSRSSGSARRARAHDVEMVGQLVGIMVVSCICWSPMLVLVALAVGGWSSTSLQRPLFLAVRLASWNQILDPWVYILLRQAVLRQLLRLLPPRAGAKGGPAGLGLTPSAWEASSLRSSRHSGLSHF
Nature of the assay: FLIPR calcium signal study, hEP1. The note with it: HEK-293(EBNA) cells, recombinant human receptor, read-out: FUNCTIONAL DATA (EC50 nm) HEP1. On the procedure:
(§1) HEK-293(EBNA) cells, stably expressing one type or subtype of recombinant human prostaglandin receptors (prostaglandin receptors expressed: hDP/Gqs5; hEP1; hEP2/Gqs5; hEP3A/Gqi5; hEP4/Gqs5; hFP; hIP; hTP), were cultured in 100 mm culture dishes in high-glucose DMEM medium containing 10% fetal bovine serum, 2 mM 1-glutamine, 250 μg/ml geneticin (G418) and 200 μg/ml hygromycin B as selection markers, and 100 units/ml penicillin G, 100 μg/ml streptomycin and 0.25 μg/ml amphotericin B.
(§2) Cells were seeded at a density of 5×10^4 cells per well in Biocoat® Poly-D-lysine-coated black-wall, clear-bottom 96-well plates (Becton-Dickinson) and allowed to attach overnight in an incubator at 37° C. Cells were then washed two times with HBSS-HEPES buffer (Hanks Balanced Salt Solution without bicarbonate and phenol red, 20 mM HEPES, pH 7.4) using a Denley Cellwash plate washer (Labsystems). […]
(§3) Cells were excited with an Argon laser at 488 nm, and emission was measured through a 510-570 nm bandwidth emission filter (FLIPR™, Molecular Devices, Sunnyvale, Calif.). […] The peak increase in fluorescence intensity was recorded for each well. […] The peak fluorescence change in each drug-containing well was then expressed relative to the controls. […]

Another assay has as its target T2, hEP3A/Gqi5 (Homo sapiens, UniProt P43115).
T2 construct: expressed in transfected cells; host or cells: HEK-293(EBNA)
T2 sequence (P43115 1-390): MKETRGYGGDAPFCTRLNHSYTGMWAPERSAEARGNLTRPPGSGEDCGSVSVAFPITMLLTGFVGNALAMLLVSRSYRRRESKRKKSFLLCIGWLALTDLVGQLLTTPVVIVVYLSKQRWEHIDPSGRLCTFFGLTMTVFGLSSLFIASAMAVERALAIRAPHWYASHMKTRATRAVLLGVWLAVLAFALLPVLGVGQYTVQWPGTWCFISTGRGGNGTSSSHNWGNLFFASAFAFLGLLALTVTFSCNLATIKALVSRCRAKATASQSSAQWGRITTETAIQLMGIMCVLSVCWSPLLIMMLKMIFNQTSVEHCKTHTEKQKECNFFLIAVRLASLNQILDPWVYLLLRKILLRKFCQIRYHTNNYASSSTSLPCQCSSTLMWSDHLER
The assay is described as follows: FLIPR calcium signal study, hEP3A/Gqi5. The note with it: HEK-293(EBNA) cells, recombinant human receptor, read-out: FUNCTIONAL DATA (EC50 nm) HEP3A. How it is done: as §1
(§4) Cells were seeded at a density of 5×10^4 cells per well in Biocoat® Poly-D-lysine-coated black-wall, clear-bottom 96-well plates (Becton-Dickinson) and allowed to attach overnight in an incubator at 37° C. Cells were then washed two times with HBSS-HEPES buffer (Hanks Balanced Salt Solution without bicarbonate and phenol red, 20 mM HEPES, pH 7.4) using a Denley Cellwash plate washer (Labsystems). After 45 minutes of dye-loading in the dark, using the calcium-sensitive dye Fluo-4 AM at a final concentration of 2 μM, plates were washed four times with HBSS-HEPES buffer to remove excess dye leaving 100 μl in each well. Plates were re-equilibrated to 37° C. for a few minutes.
(§5) Cells were excited with an Argon laser at 488 nm, and emission was measured through a 510-570 nm bandwidth emission filter (FLIPR™, Molecular Devices, Sunnyvale, Calif.). Drug solution was added in a 50 μl volume to each well to give the desired final concentration. The peak increase in fluorescence intensity was recorded for each well. On each plate, four wells each served as negative (HBSS-HEPES buffer) and positive controls (standard agonists: BW245C (hDP); PGE2 (hEP1; hEP2/Gqs5; hEP3A/Gqi5; hEP4/Gqs5); PGF2α (hFP); carbacyclin (hIP); U-46619 (hTP), depending on receptor). The peak fluorescence change in each drug-containing well was then expressed relative to the controls.
(§6) Compounds were tested in a high-throughput (HTS) or concentration-response (CoRe) format. […]

Another assay concerns the target T3, hTP (Homo sapiens, UniProt P21731).
T3 construct: expressed in transfected cells; host or cells: HEK-293(EBNA)
T3 sequence (P21731 1-343): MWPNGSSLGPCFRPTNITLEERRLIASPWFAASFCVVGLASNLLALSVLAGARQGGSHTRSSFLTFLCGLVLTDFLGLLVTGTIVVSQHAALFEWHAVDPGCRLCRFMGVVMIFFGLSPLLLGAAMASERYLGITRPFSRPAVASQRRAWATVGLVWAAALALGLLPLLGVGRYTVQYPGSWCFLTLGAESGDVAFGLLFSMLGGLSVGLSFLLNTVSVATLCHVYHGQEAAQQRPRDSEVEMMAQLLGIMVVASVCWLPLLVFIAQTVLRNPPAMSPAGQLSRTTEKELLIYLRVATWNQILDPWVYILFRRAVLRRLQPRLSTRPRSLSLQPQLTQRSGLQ
Nature of the assay: FLIPR calcium signal study, hTP. The note with it: HEK-293(EBNA) cells, recombinant human receptor, read-out: FUNCTIONAL DATA (EC50 nm) HTP. On the procedure:
as §1, §4, §5, §6

In another assay the target is T4, hEP4/Gqs5 (Homo sapiens, UniProt P35408).
T4 construct: expressed in transfected cells; host or cells: HEK-293(EBNA)
The assay is described as follows: FLIPR calcium signal study, hEP4/Gqs5. The note with it: HEK-293(EBNA) cells, recombinant human receptor, read-out: FUNCTIONAL DATA (EC50 nm) HEP4. How it is done:
as §1, §2, §3

A further assay addresses T5, hFP (Homo sapiens, UniProt P43088).
T5 construct: expressed in transfected cells; host or cells: HEK-293(EBNA)
The assay is described as follows: FLIPR calcium signal study, hFP. The note with it: HEK-293(EBNA) cells, recombinant human receptor, read-out: FUNCTIONAL DATA (EC50 nm) HFP. How it is done: as §1, §2, §3

T4 sequence (P35408 whole entry): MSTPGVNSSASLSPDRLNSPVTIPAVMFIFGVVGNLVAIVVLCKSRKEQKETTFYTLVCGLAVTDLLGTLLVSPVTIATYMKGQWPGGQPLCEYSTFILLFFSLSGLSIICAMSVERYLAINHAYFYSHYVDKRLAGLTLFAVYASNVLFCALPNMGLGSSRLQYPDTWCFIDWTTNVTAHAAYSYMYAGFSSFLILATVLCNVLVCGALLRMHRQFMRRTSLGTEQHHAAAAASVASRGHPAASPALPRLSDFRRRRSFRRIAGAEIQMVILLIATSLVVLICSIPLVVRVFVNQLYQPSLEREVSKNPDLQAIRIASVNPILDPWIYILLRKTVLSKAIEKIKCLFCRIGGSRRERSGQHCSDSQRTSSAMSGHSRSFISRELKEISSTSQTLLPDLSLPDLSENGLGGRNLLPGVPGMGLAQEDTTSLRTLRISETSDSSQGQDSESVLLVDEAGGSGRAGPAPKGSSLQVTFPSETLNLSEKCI
T5 sequence (P43088 whole entry): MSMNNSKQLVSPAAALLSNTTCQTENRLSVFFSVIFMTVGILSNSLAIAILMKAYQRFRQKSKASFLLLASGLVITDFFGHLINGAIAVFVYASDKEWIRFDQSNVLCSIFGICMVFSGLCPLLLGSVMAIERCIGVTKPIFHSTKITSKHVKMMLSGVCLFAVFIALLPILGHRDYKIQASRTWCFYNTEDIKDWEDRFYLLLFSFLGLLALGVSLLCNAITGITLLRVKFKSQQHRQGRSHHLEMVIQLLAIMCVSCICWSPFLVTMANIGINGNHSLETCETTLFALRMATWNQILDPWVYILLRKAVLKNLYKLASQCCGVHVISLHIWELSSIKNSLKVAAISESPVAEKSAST

As to `Cc1sc(CC[C@H](O)/C=C/[C@H]2CCC(O)[C@@H]2C/C=C\CCCC(=O)O)cc1Br` (single isomer, unassigned) [drawing 39], the EC50 at hEP1 was over 100000 nM; on hEP3A/Gqi5 it was 793 nM; on hTP, 96 nM; on hEP4/Gqs5, over 100000 nM.

Consider `COC(=O)CCC/C=C\C[C@H]1C(O)CC[C@@H]1/C=C/[C@@H](O)CCc1cc(Br)c(C)s1` (single isomer, unassigned), for which the values for the EC50 at hFP, on hEP3A/Gqi5 and at hTP were 2070 nM, over 100000 nM and 1870 nM, respectively.

In the case of `Cc1sc(CC[C@H](O)/C=C/[C@H]2CCC(O)[C@@H]2C/C=C\CCCC(=O)O)cc1Br` (single isomer, unassigned) [drawing 40], the concentration for a half-maximal effect (EC50) at hFP is over 100000 nM; at hEP3A/Gqi5, over 100000 nM; at hTP, over 100000 nM; on hEP4/Gqs5 it was 832 nM.
